In PubChem BioAssay AID1845211 (Molecular Pharmacology Branch, DTP, NCI, 2023):

Test system: NCI-H322M multicellular tumor spheroids, viability (% test/control)
Assay: Anticancer human tumor NCI-H322M cell line growth inhibition;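 for viability, T/C: spheroids exposed to compound for seven days before readout; 100% = DMSO vehicle control wells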
Conditions: for IC50: curve of first compound; for viability, T/C: stronger effect = lower value
Outline: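 Complex tumor spheroids combined malignant cells with endothelial cells and mesenchymal stem cells. DNA-damaging drugs and DNA repair inhibitors were tested alone and in combination, at half-log dilutions down from clinical Cmax (top 10 microM if Cmax unknown), 0.25% DMSO final.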

In the case of CC(C)n1c(=O)n(C)c2cnc3cc(F)c(-c4ccc(OCCCN5CCCCC5)nc4)cc3c21 + Cn1nnc2c(C(N)=O)ncn2c1=O, the IC50 (second compound 1 µM) is reported as > 10 µM, the IC50 (second compound 3.16 µM) is reported as > 10 µM and the IC50 (second compound 10 µM) is reported as > 10 µM. The IC50 (second compound 31.6 µM) was > 10 µM, the IC50 (second compound 100 µM) was > 10 µM and the viability, T/C (second compound 1 µM, first compound 0.0316 µM) was 86.7%. It also gave a viability, T/C (second compound 1 µM, first compound 0.1 µM) of 82.1%, a viability, T/C (second compound 1 µM, first compound 0.316 µM) of 85% and a viability, T/C (second compound 1 µM, first compound 1 µM) of 95.4%. For the same compound, the viability, T/C (second compound 1 µM, first compound 3.16 µM) was 92%, the viability, T/C (second compound 1 µM, first compound 10 µM) was 77.9% and the viability, T/C (second compound 3.16 µM, first compound 0.0316 µM) was 83.8%. For the same compound, the viability, T/C (second compound 3.16 µM, first compound 0.1 µM) was 70.6%, the viability, T/C (second compound 3.16 µM, first compound 0.316 µM) was 83.1% and the viability, T/C (second compound 3.16 µM, first compound 1 µM) was 78.7%. It also gave a viability, T/C (second compound 3.16 µM, first compound 3.16 µM) of 81.3%, a viability, T/C (second compound 3.16 µM, first compound 10 µM) of 82.5% and a viability, T/C (second compound 10 µM, first compound 0.0316 µM) of 76.8%. It also gave a viability, T/C (second compound 10 µM, first compound 0.1 µM) of 84.7%, a viability, T/C (second compound 10 µM, first compound 0.316 µM) of 89.4% and a viability, T/C (second compound 10 µM, first compound 1 µM) of 98.5%. For the same compound, the viability, T/C (second compound 10 µM, first compound 3.16 µM) was 96.4%, the viability, T/C (second compound 10 µM, first compound 10 µM) was 79.1% and the viability, T/C (second compound 31.6 µM, first compound 0.0316 µM) was 94.9%. It also gave a viability, T/C (second compound 31.6 µM, first compound 0.1 µM) of 74.8%, a viability, T/C (second compound 31.6 µM, first compound 0.316 µM) of 81.9% and a viability, T/C (second compound 31.6 µM, first compound 1 µM) of 85.2%. For the same compound, the viability, T/C (second compound 31.6 µM, first compound 3.16 µM) was 98.2%, the viability, T/C (second compound 31.6 µM, first compound 10 µM) was 84.7% and the viability, T/C (second compound 100 µM, first compound 0.0316 µM) was 85%. The viability, T/C (second compound 100 µM, first compound 0.1 µM) was 93.4%, the viability, T/C (second compound 100 µM, first compound 0.316 µM) was 82.1% and the viability, T/C (second compound 100 µM, first compound 1 µM) was 88.5%. For the same compound, the viability, T/C (second compound 100 µM, first compound 3.16 µM) was 83% and the viability, T/C (second compound 100 µM, first compound 10 µM) was 87%.
